Reference: article PMC4721142, “Randomized controlled studies on the efficacy of antiarthritic agents in inhibiting cartilage degeneration and pain associated with progression of osteoarthritis in the rat” (Arthritis Research & Therapy, 2016)
“And” between values parts separate entries of the source, which are not always exact repeats. Equal entries are not always repeated.

How the values were obtained:
[1] = test system: MIA rat model of OA; assay: MIA trial 2 histopathology (same doses as dRS test); assay type: in vivo; set-up: key to Total joint score with matrix / Total joint score w/o matrix: sum of cartilage degeneration, osteophyte and bone scores (± matrix); conditions: group mean; tacrolimus 0.3 mg/kg, other drugs single dose
In short: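 After functional testing, rat femurs were fixed, sectioned and stained with H&E or Safranin O, then scored blinded by a veterinary pathologist. Chondrocyte necrosis/proteolytic degeneration scored on a 5-point percentage-area scale; synovium, subchondral bone and cartilage graded normal to marked. Findings cross-checked with the toluidine-blue cartilage matrix and total joint scoring method.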

[2] = test system: MMT/MCLT rat model of OA; assay: MMT/MCLT trial 1 histopathology (same doses); assay type: in vivo; set-up: key to Tibial cartilage degeneration score, 3-zone total: sum of three tibial zone scores (each on 5-point scale); key to Total joint score w/o femur / Total joint score / Total joint score without femur: sum: cartilage degeneration scores + mean osteophyte score; conditions: for % decrease, bone score / % decrease, femoral cartilage degeneration score / % decrease, osteophyte measure / % decrease, osteophyte score / % decrease, significant degeneration width / % decrease, tibial score 3-zone total / % decrease, tibial score zone 1 / % decrease, tibial score zone 2 / % decrease, tibial score zone 3 / % decrease, total degeneration width / % decrease, total joint score / % decrease, total joint score w/o femur: vs saline group
In short: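 Rat knee joints were sectioned in 200-μm steps and stained with toluidine blue. Tibial cartilage degeneration was scored on a 5-point scale in three zones and summed with femoral scores, plus osteophyte scores, to give a total joint score. Results were averaged over three sections.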

[3] = individual animals, fluocinolone 10 μg/kg, 21 days
[4] = mean, tacrolimus 0.6 mg/kg, fluocinolone 10 μg/kg
[5] = mean, tacrolimus 0.6 mg/kg, fluocinolone 10 μg/kg, listed as fluocinolone
[6] = vs group 1, fluocinolone 10 μg/kg
[7] = tacrolimus 0.6 mg/kg, fluocinolone 10 μg/kg

`CC1(C)O[C@@H]2C[C@H]3[C@@H]4C[C@H](F)C5=CC(=O)C=C[C@]5(C)[C@@]4(F)[C@@H](O)C[C@]3(C)[C@]2(C(=O)CO)O1` [Fluocinolone, Fluocinolone Acetonide] was tested, and the Bone resorption score [1] was 3.0, the “Bone resorption, percent of surface, LFC” value [1] was 65% and the “Bone resorption, percent of surface, LTP” value [1] was 58%. The “Bone resorption, percent of surface, MFC” value [1] was 38%, the “Bone resorption, percent of surface, MTP” value [1] was 45% and the “Bone resorption, percent of surface, mean” value [1] was 51%. The “Cartilage matrix damage score” value [1] was 3.3 and 3.3 ± 0.8, the “Mean of all cartilage loss” value [1] was 60% and the Osteophyte measure [1] was 600.0 µm. The Osteophyte score [1] was 3.0, the “Subchondral bone sclerosis score” value [1] was 0.0 and the “Total joint score w/o matrix” value [1] was 6.0. For the same compound, the “Total joint score with matrix” value [1] was 9.3 and 9.3 ± 2.5, the Bone score [2, 3] was 3.00 and 2.00 and 4.00 and 1.00 and the “Femoral cartilage degeneration score” value [2, 3] was 1.00 and 2.00 and 3.00 and 2.33 and 1.33. For the same compound, the “Tibial cartilage degeneration score, 3-zone total” value [2, 3] was 4.67 and 5.00 and 6.33 and 7.00 and 7.67 and 5.33 and 6.00, the “Tibial cartilage degeneration score, zone 1” value [2, 3] was 3.00 and 4.33 and 3.33 and 4.67 and 4.00 and the “Tibial cartilage degeneration score, zone 2” value [2, 3] was 1.67 and 2.00 and 1.33 and 2.33 and 2.67. The “Tibial cartilage degeneration score, zone 3” value [2, 3] was 0.00 and 0.33, the “Tibial cartilage degeneration width, significant” value [2, 3] was 466.67 μm and 433.33 μm and 633.33 μm and 766.67 μm and 800.00 μm and 566.67 μm and 666.67 μm and the “Tibial cartilage degeneration width, total” value [2, 3] was 1400.00 μm and 1066.67 μm and 1133.33 μm and 1000.00 μm and 1600.00 μm and 1266.67 μm and 1100.00 μm. For the same compound, the Tibial osteophyte measure [2, 3] was 333.33 μm and 413.33 μm and 280.00 μm and 426.67 μm and 586.67 μm and 400.00 μm and 380.00 μm, the Tibial osteophyte score [2, 3] was 2.00 and 2.33 and 3.00 and 1.33 and 4.67 and 2.67 and the Total joint score [2, 3] was 7.67 and 8.33 and 11.33 and 9.00 and 12.33 and 15.33 and 9.67 and 10.67. For the same compound, the “Total joint score without femur” value [2, 3] was 6.67 and 7.33 and 9.33 and 6.00 and 10.00 and 12.33 and 8.33 and 8.67, the Bone score ([2]; mean, low or only dose) was 2.38 and the “Femoral cartilage degeneration score” value ([2]; mean, low or only dose) was 1.33 and 1.33 ± 0.14. For the same compound, the “Tibial cartilage degeneration score, 3-zone total” value ([2]; mean, low or only dose) was 6.08, the “Tibial cartilage degeneration score, zone 1” value ([2]; mean, low or only dose) was 4.17 and the “Tibial cartilage degeneration score, zone 2” value ([2]; mean, low or only dose) was 1.88. The “Tibial cartilage degeneration score, zone 3” value ([2]; mean, low or only dose) was 0.04, the “Tibial cartilage degeneration width, significant” value ([2]; mean, low or only dose) was 608.33 µm and the “Tibial cartilage degeneration width, total” value ([2]; mean, low or only dose) was 1154.17 µm. For the same compound, the Tibial osteophyte measure ([2]; mean, low or only dose) was 455.00 µm, the Tibial osteophyte score ([2]; mean, low or only dose) was 3.33 and the Total joint score ([2]; mean, low or only dose) was 10.75 and 10.75 ± 0.61. The “Total joint score w/o femur” value ([2]; mean, low or only dose) was 9.42, the Bone score [2, 4] was 2.63 and the “Femoral cartilage degeneration score” value [2, 4] was 1.96 ± 0.77. The “Tibial cartilage degeneration score, 3-zone total” value [2, 4] was 5.83, the “Tibial cartilage degeneration score, zone 1” value [2, 4] was 3.88 and the “Tibial cartilage degeneration score, zone 2” value [2, 4] was 1.92. For the same compound, the “Tibial cartilage degeneration score, zone 3” value [2, 4] was 0.04, the “Tibial cartilage degeneration width, significant” value [2, 4] was 595.83 μm and the “Tibial cartilage degeneration width, total” value [2, 4] was 1212.50 μm. It also gave a Tibial osteophyte measure [2, 4] of 394.17 μm, a Tibial osteophyte score [2, 4] of 2.75 and a Total joint score [2, 4] of 10.54 ± 0.88. For the same compound, the “Total joint score w/o femur” value [2, 4] was 8.58, the “Femoral cartilage degeneration score” value [2, 5] was 1.96 and the Total joint score [2, 5] was 10.54. For the same compound, the “% increase, area of viable cartilage matrix” value ([2]; tacrolimus 0.3 mg/kg, fluocinolone 5 ug/kg) was 17%, the “% increase, area of viable cartilage matrix” value ([2]; tacrolimus 0.6 mg/kg, fluocinolone 10 ug/kg) was 20% and the “Percentage, bone score” value [2, 6] was 0.19. The “Percentage, femoral cartilage degeneration score” value [2, 6] was −0.07, the “Percentage, osteophyte measure” value [2, 6] was 0.23 and the “Percentage, osteophyte score” value [2, 6] was 0.30. The “Percentage, significant degeneration width” value [2, 6] was 0.18, the “Percentage, tibial score zone 1” value [2, 6] was 0.10 and the “Percentage, tibial score zone 2” value [2, 6] was 0.13. The “Percentage, tibial score zone 3” value [2, 6] was 0.00, the “Percentage, total degeneration width” value [2, 6] was 0.08 and the “Percentage, total joint score” value [2, 6] was 0.14. For the same compound, the “Percentage, total joint score without femur” value [2, 6] was 0.18, the “% decrease, bone score” value ([2]; low or only dose) was 27% and the “% decrease, femoral cartilage degeneration score” value ([2]; low or only dose) was 27%. For the same compound, the “% decrease, osteophyte measure” value ([2]; low or only dose) was 11%, the “% decrease, osteophyte score” value ([2]; low or only dose) was 15% and the “% decrease, significant degeneration width” value ([2]; low or only dose) was 16%. For the same compound, the “% decrease, tibial score 3-zone total” value ([2]; low or only dose) was 7%, the “% decrease, tibial score zone 1” value ([2]; low or only dose) was 3% and the “% decrease, tibial score zone 2” value ([2]; low or only dose) was 15%. For the same compound, the “% decrease, tibial score zone 3” value ([2]; low or only dose) was 0%, the “% decrease, total degeneration width” value ([2]; low or only dose) was 12% and the “% decrease, total joint score” value ([2]; low or only dose) was 13%. The “% decrease, total joint score w/o femur” value ([2]; low or only dose) was 10%, the “% decrease, bone score” value [2, 7] was 19% and the “% decrease, femoral cartilage degeneration score” value [2, 7] was -7%. The “% decrease, osteophyte measure” value [2, 7] was 23%, the “% decrease, osteophyte score” value [2, 7] was 30% and the “% decrease, significant degeneration width” value [2, 7] was 18%. The “% decrease, tibial score 3-zone total” value [2, 7] was 11%, the “% decrease, tibial score zone 1” value [2, 7] was 10% and the “% decrease, tibial score zone 2” value [2, 7] was 13%. The “% decrease, tibial score zone 3” value [2, 7] was 0%, the “% decrease, total degeneration width” value [2, 7] was 8% and the “% decrease, total joint score” value [2, 7] was 14%. The “% decrease, total joint score w/o femur” value [2, 7] was 18%.
